In patent US20180110762A1, “Compositions Methods for Treating Chronic Kidney Disease” (Merck Sharp & Dohme Corp, priority 2015, published 2018):

What was measured:
human podocytes [1] = assay: Oris cell migration assay, PAN-induced podocyte motility, fibronectin coated plate; assay type: cell-based; conditions: 48 h; for % migrated cells vs control cells: FN plate
Method: (§1) The effects of Compound A on podocyte motility were evaluated using Oris cell migration assay kit in 96-well plates (coated with either vitronectin or fibronectin). The Oris™ Cell Migration Assay is designed with a unique cell seeding stopper or biocompatible gel, detection mask, and stopper tool. These unique plate designs generate highly reproducible results using a microscope, digital imaging system. 7 to 10-day differentiated human podocytes (100 ul of 50,000 cells/ml) were seeded in each well of the ORIS plate. After sitting at room temperature for about 15 minutes, the plate was placed into 37° C. incubator and podocytes were incubated with complete podocyte medium for 24 h. Stoppers from each well (keeping stoppers in 4 wells which were served as time zero control) were carefully removed, medium discarded, and fresh (10% FBS) podocyte medium added to each well. Podocytes were pretreated with Compound A (10 uM to 0.01 nM) for 2 h prior to puromycin animonucleoside (PAN, 30 ug/ml or 15 ug/ml) treatment. Podocytes were then treated with PAN in the presence or absence of Compound A at different concentrations (ranging from 10 uM to 0.01 nM) in 10% FBS medium for 48 h. Podocytes were then fixed with 4% paraformaldehyde in PBS for 30 minutes (adding 50 ul to each well). After discarding the fixative, podocytes were stained with Hoechst 33342 (stock […] working concentration at 5 uM) for 30 min. Podocytes were then washed with PBS three times. Finally, after adding 100 ul of PBS to each well, plate was sealed with a black cover and kept at 4° C. until image analysis. Images of podocyte motility were captured using Acumen eX3 (manufacturer TTP Labtech Ltd. address: Melbourn Science Park, Melbourn, Hertfordshire SG8 6EE, United Kingdom).
Effect of Compound A (“A”) on human podocyte motility was examined using Oris cell migration assay in fibronectin (FN) coated-96-well plate.

human podocytes [2] = assay: Oris cell migration assay, podocyte motility, Compound A alone, vitronectin coated plate; assay type: cell-based; conditions: for % migrated cells vs control cells: 48 h, VN plate
Method: as §1
Effect of Compound A (“A”) alone on human podocyte motility was examined using Oris cell migration assay in vitronectin (VN) coated-96-well plate.

[3] = target: T1, αvβ3 purified from 293 cells overexpressing αvβ3 (Homo sapiens, UniProt P05106+P06756); assay: SPAV3 binding assay (scintillation proximity)
T1 construct: made in house; host or cells: 293 cells overexpressing αvβ3
T1 sequence (P06756 31-889 limits assumed): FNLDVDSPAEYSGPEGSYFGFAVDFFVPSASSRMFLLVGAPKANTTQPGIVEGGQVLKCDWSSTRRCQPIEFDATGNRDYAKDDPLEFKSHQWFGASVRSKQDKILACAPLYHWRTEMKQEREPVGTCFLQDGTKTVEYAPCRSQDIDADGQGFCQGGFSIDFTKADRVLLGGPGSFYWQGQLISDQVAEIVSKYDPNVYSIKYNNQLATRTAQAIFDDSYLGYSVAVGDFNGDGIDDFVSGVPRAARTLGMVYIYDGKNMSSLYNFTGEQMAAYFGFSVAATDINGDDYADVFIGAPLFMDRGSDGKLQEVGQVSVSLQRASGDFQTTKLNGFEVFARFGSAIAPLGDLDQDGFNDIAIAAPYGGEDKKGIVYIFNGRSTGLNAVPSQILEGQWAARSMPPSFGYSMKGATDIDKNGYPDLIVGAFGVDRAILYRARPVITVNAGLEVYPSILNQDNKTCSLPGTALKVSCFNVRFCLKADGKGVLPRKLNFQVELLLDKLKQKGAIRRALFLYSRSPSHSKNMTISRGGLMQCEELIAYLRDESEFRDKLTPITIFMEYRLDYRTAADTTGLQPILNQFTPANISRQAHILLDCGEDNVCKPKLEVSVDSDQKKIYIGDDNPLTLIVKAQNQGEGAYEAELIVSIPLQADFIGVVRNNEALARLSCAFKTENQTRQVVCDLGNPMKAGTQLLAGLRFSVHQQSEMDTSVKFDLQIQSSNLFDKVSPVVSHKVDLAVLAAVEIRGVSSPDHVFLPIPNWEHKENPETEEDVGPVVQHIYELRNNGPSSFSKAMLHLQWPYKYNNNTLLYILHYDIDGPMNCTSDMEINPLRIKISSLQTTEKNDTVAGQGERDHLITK
T1 sequence (P06756 891-1048 partner limits assumed): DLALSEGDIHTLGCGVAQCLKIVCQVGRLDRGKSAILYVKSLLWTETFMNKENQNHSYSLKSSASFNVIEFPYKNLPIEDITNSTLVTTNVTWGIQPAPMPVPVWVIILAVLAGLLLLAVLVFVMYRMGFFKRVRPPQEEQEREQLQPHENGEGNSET
T1 sequence (P05106 27-788): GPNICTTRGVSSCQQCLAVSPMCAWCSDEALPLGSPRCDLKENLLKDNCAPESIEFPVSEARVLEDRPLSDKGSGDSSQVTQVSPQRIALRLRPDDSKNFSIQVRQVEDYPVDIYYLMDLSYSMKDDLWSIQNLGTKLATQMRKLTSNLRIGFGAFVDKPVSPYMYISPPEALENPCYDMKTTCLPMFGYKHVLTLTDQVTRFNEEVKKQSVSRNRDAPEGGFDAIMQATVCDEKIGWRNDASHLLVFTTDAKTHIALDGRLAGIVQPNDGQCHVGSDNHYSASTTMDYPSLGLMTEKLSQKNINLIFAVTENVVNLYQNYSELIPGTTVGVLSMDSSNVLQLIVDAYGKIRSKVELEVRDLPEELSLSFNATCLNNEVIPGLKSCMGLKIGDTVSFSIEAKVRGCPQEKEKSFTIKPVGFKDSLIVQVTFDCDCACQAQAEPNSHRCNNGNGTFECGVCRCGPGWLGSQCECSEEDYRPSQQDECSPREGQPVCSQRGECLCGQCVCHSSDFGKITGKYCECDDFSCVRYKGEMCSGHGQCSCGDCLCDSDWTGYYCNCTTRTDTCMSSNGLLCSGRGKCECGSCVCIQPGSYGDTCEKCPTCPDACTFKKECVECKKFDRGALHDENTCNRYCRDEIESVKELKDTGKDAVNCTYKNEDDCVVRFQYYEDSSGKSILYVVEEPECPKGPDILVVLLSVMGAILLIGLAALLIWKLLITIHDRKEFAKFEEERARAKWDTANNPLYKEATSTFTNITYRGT
Description: • 1. Wheat germ agglutinin Scintillation Proximity Beads (SPA): Amersham • 2. Octylglucopyranoside: Calbiochem • 3. HEPES: Calbiochem • 4. NaCl: Fisher • 5. CaCl2: Fisher • 6. MgCl2: SIGMA • 7. Phenylmethylsulfonylfluoride (PMSF): SIGMA • 8. Optiplate: PACKARD • 9. (S)-3-(4-(2-(6-aminopyridin-2-yl)ethyl)benzamido)-2-((4-(iodo-^125I)phenyl)sulfonamido)propanoic acid as found in WO0046215 (specific activity 500-1000 Ci/mmole) • 10. Test compound • 11. Purified integrin receptor: αvβ3 was purified from 293 cells overexpressing αvβ3 (Duong et al., J. Bone Min. Res., 8:S378, 1993) according to Pytela (Methods in Enzymology, 144:475, 1987) • 12. Binding buffer: 50 mM HEPES, pH 7.8, 100 mM NaCl, 1 mM Ca^2+/Mg^2+, 0.5 mM PMSF • 13. 50 mM octylglucoside in binding buffer: 50-OG buffer
• 1. Pretreatment of SPA beads: • 500 mg of lyophilized SPA beads were first washed four times with 200 ml of 50-OG buffer and once with 100 ml of binding buffer, and then resuspended in 12.5 ml of binding buffer. • 2. Preparation of SPA beads and receptor mixture • In each assay tube, 2.5 μl (40 mg/ml) of pretreated beads were suspended in 97.5 μl of binding buffer and […] of 50-OG buffer. […] (˜30 ng/μ1) of purified receptor was added to the beads in suspension with stirring at room temperature for 30 minutes. The mixture was then centrifuged at 2,500 rpm in a Beckman GPR Benchtop centrifuge for 10 minutes at 4° C. The pellets were then resuspended in 50 μl of binding buffer and 25 μl of 50-OG buffer. • 3. Reaction • The following were sequentially added into Optiplate in corresponding wells: • (i) Receptor/beads mixture (75 μl) • (ii) 25 μl of each of the following: compound to be tested, binding buffer for total binding or A-8 for non-specific binding (final concentration 1 μM) • (iii) (S)-3-(4-(2-(6-aminopyridin-2-yl)ethyl)benzamido)-2-((4-(iodo-^125I)phenyl)sulfonamido)propanoic acid as found in WO0046215 (specific activity 500-1000 Ci/mmole) in binding buffer (25 μl, final concentration 40 pM) • (iv) Binding buffer (125 μl) • (v) Each plate was sealed with plate sealer from PACKARD and incubated overnight with rocking at 4° C. • 4. Plates were counted using PACKARD TOPCOUNT • 5. % inhibition was calculated as follows: • A=total counts • B=nonspecific counts • C=sample counts
% inhibition=[{(A−B)−(C−B)}/(A−B)]/(A−B)×100

Structure (SMILES): COc1ccc([C@H](CC(=O)O)N2CCN(CCCc3ccc4c(n3)NCCC4)C2=O)cn1 [Compound A, 3-{2-Oxo-3-[3-(5,6,7,8-tetrahydro-[1,8]naphthyridin-2-yl)-propyl]imidazolidin-1-yl}-3 (S)-(6-methoxy-pyridin-3-yl)-propionic acid]
- IC50 (human podocytes [1]; Homo sapiens, fibronectin coated plates, PAN 15 ug/ml, read-out: IC50, inhibition of puromycin-induced human podocyte motility): 1.12 nM
- % migrated cells vs control cells (human podocytes [1]; PAN 15 ug/ml + A 0.01 nM): 76.3%
- % migrated cells vs control cells (human podocytes [1]; PAN 15 ug/ml + A 0.0316 nM): 80.3%
- % migrated cells vs control cells (human podocytes [1]; PAN 15 ug/ml + A 0.1 nM): 84.9%
- % migrated cells vs control cells (human podocytes [1]; PAN 15 ug/ml + A 0.316 nM): 83.6%
- % migrated cells vs control cells (human podocytes [1]; PAN 15 ug/ml + A 1 nM): 72.9%
- % migrated cells vs control cells (human podocytes [1]; PAN 15 ug/ml + A 3.16 nM): 64.8%
- % migrated cells vs control cells (human podocytes [1]; PAN 15 ug/ml + A 10 nM): 54.1%
- % migrated cells vs control cells (human podocytes [1]; PAN 15 ug/ml + A 100 nM): 35.8%
- % migrated cells vs control cells (human podocytes [1]; PAN 15 ug/ml + A 1 uM): 36.3%
- % migrated cells vs control cells (human podocytes [1]; PAN 15 ug/ml + A 10 uM): 33.1%
- human podocyte motility, Compound A alone vs vehicle (human podocytes [2]; 48 hours, vitronectin coated plate): significant inhibition of motility in a dose-dependent manner
- % migrated cells vs control cells (human podocytes [2]; A alone 0.01 nM): 39.7%
- % migrated cells vs control cells (human podocytes [2]; A alone 0.0316 nM): 43.7%
- % migrated cells vs control cells (human podocytes [2]; A alone 0.1 nM): 38.8%
- % migrated cells vs control cells (human podocytes [2]; A alone 0.316 nM): 38.6%
- % migrated cells vs control cells (human podocytes [2]; A alone 1 nM): 33.4%
- % migrated cells vs control cells (human podocytes [2]; A alone 3.16 nM): 30.6%
- % migrated cells vs control cells (human podocytes [2]; A alone 10 nM): 19.2%
- % migrated cells vs control cells (human podocytes [2]; A alone 100 nM): 20.5%
- % migrated cells vs control cells (human podocytes [2]; A alone 1 uM): 17.9%
- % migrated cells vs control cells (human podocytes [2]; A alone 10 uM): 17.9%
- IC50 [3]: 0.1 nM
